The source of these data is US20010051624A1, “Method and compositions for the treatment of allergic conditions using PGD2 receptor antagonists” (priority 2000, published 2001).

This test relates to ovalbumin-sensitized guinea pigs. Briefly: Guinea pig allergic rhinitis model: intranasal pressure after nasal ovalbumin challenge. It counts as in vivo. The conditions noted are these: 60 minutes prior to ovalbumin 1% challenge, AUC 0-30 min. On the procedure: Male Hartley guinea pigs (250-500 g) purchased from Charles River (St-Constant, Qc, Canada) were used. They were housed in a temperature and humidity controlled environment, in groups of four or five with food and water available ad libitum. Experimental procedures were approved by the Animal Care Committee at Merck Frosst Centre for Therapeutic Research, in accordance with the guidelines of the Canadian Council on Animal Care.
Sensitization: The animals were injected intraperitoneally with 0.5 ml of an ovalbumin solution (100 μg/ml) containing 100 mg/ml aluminum hydroxide in 0.9% saline. […]
Following the surgical preparation, gallamine (2 mg/kg, i.v.) was administered to suppress spontaneous breathing. […] The changes in the intranasal pressure were monitored through a pressure transducer (Validyne DP-45, membrane 6-26, Validyne Corp., Northridge, Calif.) connected to a side arm of the nasal cannula. Values were recorded every 5 seconds using a data acquisition system (Modular Instruments, Malvern, Pa.). […]
The effects of test compounds were evaluated on the increased intranasal pressure following a nasal challenge with an aerosol of ovalbumin 1% for 3 minutes. […] The changes in intranasal pressure were recorded for the 30 minutes following the nasal challenge, using the peak response. […]

The structures appear in SMILES notation.

Take `C[S@+]([O-])c1cccc2c3c(n(Cc4ccc(Cl)cc4)c12)[C@@H](CC(=O)O)CCC3` [Compound I, 2-[(1R)-9-(4-chlorobenzyl)-8-((S)-methylsulfinyl)-2,3,4,9-tetrahydro-1H-carbazol-1-yl]acetic acid]: the “effect on the increase in intranasal pressure induced by ovalbumin aerosol” value (Compound I 1 mg/kg i.p. alone) is listed as “no significant effect”.

Turning to `COc1ccc(CN(CCN(C)C)c2ccccn2)cc1` [mepyramine], the “effect on the increase in intranasal pressure induced by ovalbumin aerosol” value (mepyramine 5 mg/kg i.p. alone) is “no significant effect”.
